{"source": "paper PMC3238500", "about": "(Archives of biochemistry and biophysics, 2011)", "key": {"[1]": {"target": "T1, pyruvate carboxylase (RePC) (Rhizobium etli, UniProt Q2K340)", "format": "binding"}, "[2]": {"target": "T1, pyruvate carboxylase (RePC)", "format": "biochemical"}, "[3]": {"target": "T1, pyruvate carboxylase (RePC)", "assay": "Stopped-flow fluorescence kinetics of MgTNP-ATP binding to pyruvate carboxylase", "conditions": "for kobs1 (fast phase of binding) / kobs2 (intermediate phase of binding): 0.5 μM enzyme, double exponential fit; for k-2 / K2 (equilibrium constant between two conformational states, k-2/k2) / k2: intermediate phase"}, "[4]": {"target": "T1, pyruvate carboxylase (RePC)", "format": "biochemical", "remark": "listed apart in the source"}}, "note": "Like-named read-outs stand apart in the source and are kept apart here.", "data": [{"compound": "Nc1ncnc2c1ncn2[C@@H]1O[C@H](COP(=O)(O)OP(=O)([O-])OP(=O)([O-])O)[C@@H](O)[C@H]1O.[Mg+2]", "note": "[MgATP]", "values": [{"measurement": "further decrease in fluorescence", "setting": "[1]; addition of 2.5 mM MgATP to 5 μM MgTNP-ATP + 10 μM enzyme + 0.25 mM acetyl CoA", "result": "approximately 13%"}, {"measurement": "Hill coefficient", "setting": "[2]; activation by MgATP, absence of acetyl CoA, Fig. 6b", "result": "3.1 ± 0.5"}, {"measurement": "increase in activity", "setting": "[2]; between 2 mM and saturating MgATP, absence of acetyl CoA", "result": "approximately 16 fold"}, {"measurement": "apparent Ka (activation of ATP cleavage)", "setting": "[2]; super-catalytic MgATP, absence of acetyl CoA, fit to equation (iv), Fig. 6b", "result": "5.0 ± 0.4", "unit": "mM"}, {"measurement": "effect on kinetics of MgTNP-ATP binding", "setting": "[3]; 1 mM MgATP in both syringes, 10 μM MgTNP-ATP", "result": "essentially identical"}, {"measurement": "Km", "setting": "[4]; MgATP varied, absence of acetyl CoA, fit to equation (iii), Fig. 6a", "result": "150 ± 20", "unit": "µM"}, {"measurement": "Ki", "setting": "[4]; read-out: Ki (substrate inhibition), MgATP varied, absence of acetyl CoA, fit to equation (iii), Fig. 6a", "result": "8.9 ± 1.2", "unit": "mM"}]}, {"compound": "Nc1ncnc2c1ncn2[C@@H]1O[C@H](COP(=O)(O)OP(=O)(O)OP(=O)(O)O)[C@H]2OC3(O[C@H]21)C([N+](=O)[O-])=CC(=[N+]([O-])[O-])C=C3[N+](=O)[O-]", "note": "(stereo partly drawn) [MgTNP-ATP, 2′,3′-O-(2,4,6-trinitrophenyl) adenosine 5′-triphosphate]", "values": [{"measurement": "half time of the slowest phase of the binding kinetics", "setting": "[3]", "result": "about 20 sec"}, {"measurement": "kobs1 (fast phase of binding)", "setting": "[3]; 10 μM MgTNP-ATP, Fig. 8a", "result": "234 ± 26", "unit": "s⁻¹"}, {"measurement": "kobs2 (intermediate phase of binding)", "setting": "[3]; 10 μM MgTNP-ATP, Fig. 8a", "result": "11 ± 1", "unit": "s⁻¹"}, {"measurement": "k (slow phase of binding)", "setting": "[3]; 20 μM MgTNP-ATP, single exponential fit, Fig. 8c", "result": "0.035 ± 0.001", "unit": "s⁻¹"}, {"measurement": "kobs1 (fast phase of binding)", "setting": "[3]; 35 μM MgTNP-ATP, Fig. 8b", "result": "475 ± 90", "unit": "s⁻¹"}, {"measurement": "kobs2 (intermediate phase of binding)", "setting": "[3]; 35 μM MgTNP-ATP, Fig. 8b", "result": "19 ± 2", "unit": "s⁻¹"}, {"measurement": "observed first order rate constant, slow phase of binding", "setting": "[3]; average value across all concentrations of MgTNP-ATP", "result": "0.035 ± 0.008", "unit": "s⁻¹"}, {"measurement": "k1", "setting": "[3]; fast phase, fit to eq (vi)", "result": "0.20 ± 0.01", "unit": "μM^-2s^-1"}, {"measurement": "k2 (intermediate phase) as percentage of k1 (fast phase)", "setting": "[3]; fit to equation (ix)", "result": 5.9, "unit": "%"}, {"measurement": "k-2 (intermediate phase) as percentage of k-1 (fast phase)", "setting": "[3]; fit to equation (ix)", "result": 6.6, "unit": "%"}, {"measurement": "k-2", "setting": "[3]; fit to eq (ix)", "result": "10.6 ± 0.2", "unit": "s⁻¹"}, {"measurement": "K2 (equilibrium constant between two conformational states, k-2/k2)", "setting": "[3]; fit to eq (vii)", "result": "0.02 ± 0.02"}, {"measurement": "k2", "setting": "[3]; fit to eq (vii)", "result": "31 ± 1", "unit": "s⁻¹"}, {"measurement": "k-2", "setting": "[3]; fit to eq (vii)", "result": "0.6 ± 0.6", "unit": "s⁻¹"}, {"measurement": "K2 (equilibrium constant between two conformational states, k-2/k2)", "setting": "[3]; fit to eq (viii)", "result": "0.47 ± 0.05"}, {"measurement": "k2", "setting": "[3]; fit to eq (viii)", "result": "22.6 ± 0.7", "unit": "s⁻¹"}, {"measurement": "k-2", "setting": "[3]; fit to eq (viii)", "result": "10.5 ± 0.2", "unit": "s⁻¹"}, {"measurement": "k-2", "setting": "[3]; fit to eq (x)", "result": "12.6 ± 0.2", "unit": "s⁻¹"}, {"measurement": "k2", "setting": "[3]; fit to eq (xi)", "result": "0.013 ± 0.001", "unit": "μM^-2s^-1"}, {"measurement": "k-2", "setting": "[3]; fit to eq (xi)", "result": "12.7 ± 0.2", "unit": "s⁻¹"}, {"measurement": "k2", "setting": "[3]; fit to eq (xii)", "result": "0.016 ± 0.001", "unit": "μM^-2 s^-1"}, {"measurement": "k-2", "setting": "[3]; fit to eq (xii)", "result": "13.5 ± 0.3", "unit": "s⁻¹"}, {"measurement": "kcat2 for the activation by MgTNP-ATP", "setting": "[4]; absence of acetyl CoA, fit to equation (i), Fig. 4c", "result": "1.9 ± 0.1", "unit": "s⁻¹"}, {"measurement": "nt (Hill coefficient)", "setting": "[4]; activation by MgTNP-ATP in the absence of acetyl CoA, fit to equation (i), Fig. 4c", "result": "2.3 ± 0.6"}, {"measurement": "nt (Hill coefficient)", "setting": "[4]; activation by MgTNP-ATP, global fit to equation (ii), Fig. 4b", "result": "2.5 ± 0.4"}, {"measurement": "substrate in the overall pyruvate carboxylation reaction", "setting": "[4]; concentrations up to 0.25 mM", "result": "not found to be a substrate"}, {"measurement": "kcat2 for the reaction activated by MgTNP-ATP", "setting": "[4]; global fit to equation (ii), Fig. 4b", "result": "2.0 ± 0.5", "unit": "s⁻¹"}]}, {"compound": "CC(=O)SCCNC(=O)CCNC(=O)[C@H](O)C(C)(C)COP(=O)(O)OP(=O)(O)OC[C@H]1O[C@@H](n2cnc3c(N)ncnc32)[C@H](O)[C@@H]1OP(=O)(O)O", "note": "[acetyl CoA]", "values": [{"measurement": "decrease in maximum fluorescence intensity", "setting": "[1]; addition of 0.25 mM acetyl CoA to 5 μM MgTNP-ATP + 10 μM enzyme", "result": "approximately 32%"}, {"measurement": "increase in the turnover number for ATP cleavage", "setting": "[2]; induced by acetyl CoA when MgATP is present up to 1 mM (data not shown)", "result": 7, "unit": "fold"}, {"measurement": "n (Hill coefficient)", "setting": "[4]; activation by acetyl CoA, fit to equation (i), Fig. 4a", "result": "2.6 ± 0.2"}, {"measurement": "Ka (activation constant)", "setting": "[4]; activation by acetyl CoA, fit to equation (i), Fig. 4a, 30°C, pH 7.8", "result": "6.9 ± 0.2", "unit": "µM"}, {"measurement": "kcat2", "setting": "[4]; saturating acetyl CoA, fit to equation (i), Fig. 4a", "result": "20.2 ± 0.1", "unit": "s⁻¹"}]}]}
